In PubChem BioAssay (NCI):
Where “and” joins values, the source holds several entries; their conditions need not be identical. Identical values can stand only once.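 Five compound concentrations were applied to cells in 96-well plates for 48 hours; endpoints were derived by simple linear interpolation of the resulting dose-response curve. The concentration for 50% growth inhibition is given as GI50. TGI: total growth inhibition.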

Key:
Assay in all cases: inhibition of tumour cell growth, NCI panel, 48 h
A498 renal = tested on: A498 renal
SNB-75 CNS = tested on: SNB-75 CNS
ACHN renal = tested on: ACHN renal
EKVX NSCLC = tested on: EKVX NSCLC
SNB-19 CNS = tested on: SNB-19 CNS
T-47D breast = tested on: T-47D breast
SK-MEL-5 melanoma = tested on: SK-MEL-5 melanoma
RXF 393 renal = tested on: RXF 393 renal
HCT-116 colon = tested on: HCT-116 colon
SN12C renal = tested on: SN12C renal

| Compound | GI50 (A498 renal) | TGI (A498 renal) | GI50 (SNB-75 CNS) | TGI (SNB-75 CNS) | GI50 (ACHN renal) | TGI (ACHN renal) | GI50 (EKVX NSCLC) | TGI (EKVX NSCLC) | GI50 (SNB-19 CNS) | TGI (SNB-19 CNS) | GI50 (T-47D breast) | TGI (T-47D breast) | GI50 (SK-MEL-5 melanoma) | TGI (SK-MEL-5 melanoma) | GI50 (RXF 393 renal) | TGI (RXF 393 renal) | GI50 (HCT-116 colon) | TGI (HCT-116 colon) | GI50 (SN12C renal) | TGI (SN12C renal) |
| --- | --- | --- | --- | --- | --- | --- | --- | --- | --- | --- | --- | --- | --- | --- | --- | --- | --- | --- | --- | --- |
| Nc1nc(-c2ccccn2)c(-c2ccc3ncccc3n2)s1 | > 25 µM | > 25 µM | > 25 µM | > 25 µM | > 25 µM | > 25 µM | > 25 µM | > 25 µM | > 25 µM | > 25 µM | > 25 µM | > 25 µM | > 25 µM | > 25 µM | > 25 µM | > 25 µM | > 25 µM | > 25 µM | > 25 µM | > 25 µM |
| COc1cc2nc(NC3CCC3)nc(NC3CCN(C(C)C)CC3)c2cc1OC | 1.24 µM | 7.05 µM | 1.41 µM | 4.4 µM | 2.7 µM | 7.4 µM | 4.65 µM | 23.4 µM |  |  | 1.95 µM | 4.11 µM | 1.75 µM | 3.15 µM | 1.38 µM | 2.85 µM | 1.78 µM | 4.39 µM | 3.92 µM | 16.1 µM |
| Cc1ccc(CNc2ccc(Cl)cc2NCc2ccc(C)c(O)c2)cc1O | 8.55 µM | 16.1 µM | 5.47 µM | 12.1 µM | 6.19 µM | 12.6 µM | 8.14 µM | 15.4 µM | 7.69 µM | 15.3 µM | 7.4 µM | 20.1 µM |  |  | 7.5 µM | 14.5 µM | 7.78 µM | 14.6 µM | 6.95 µM | 14 µM |
| O=C1Nc2ccc(I)cc2/C1=C/c1cc(Br)c(O)c(Br)c1 | > 16.3 µM and 20.3 µM | > 25 µM and 41.9 µM | > 25 µM and 22.2 µM | > 90.3 µM | > 19.8 µM and 21.8 µM | > 85.8 µM | > 17.5 µM and 13.8 µM | > 84.1 µM | > 21.6 µM and 31.1 µM | > 94.3 µM | > 18.5 µM and 15.4 µM | > 82.8 µM | 13 µM and 10.5 µM | > 25 µM and 23.6 µM | > 16.6 µM and 12 µM | > 25 µM and 28.3 µM | > 17.2 µM and 15.2 µM | > 25 µM and 32.8 µM | > 25 µM and 25.9 µM | > 80.8 µM |
| COc1cc(F)c(F)c(F)c1C(=O)c1cnc(NC2CCN(S(C)(=O)=O)CC2)nc1N | 1.28 µM | 6.69 µM | 3.65 µM | 8.75 µM | 0.906 µM | > 25 µM |  |  | 1.39 µM | > 25 µM | 2.64 µM | > 24.1 µM | 0.986 µM | > 23.6 µM | 0.534 µM | 1.98 µM | 0.56 µM | > 25 µM | 1.96 µM | > 25 µM |
| CS(=O)c1cc(=O)c2ccccc2s1 (stereo not given) |  | 25.4 µM |  | 24.4 µM |  | 3.66 µM |  | 20.5 µM |  | 32.3 µM |  | 6.52 µM |  | 22.4 µM |  | 5.46 µM |  | 5.11 µM |  | 13.2 µM |
| CN(C)CCCn1c2c(c3ccc(N4CCNCC4)cc3c1=O)C(=O)c1ccccc1-2 |  |  | 0.947 µM | 2.55 µM | 0.392 µM | 2.63 µM | 1.18 µM | 2.93 µM | 0.541 µM | 3.23 µM | 1.55 µM | 4.42 µM | 0.698 µM | 2.2 µM | 1.29 µM | 2.9 µM |  |  | 0.329 µM | 1.79 µM |
